Target: T1, 5-HT3 receptors (Mus musculus, UniProt P23979)
T1 construct: a group of 5 male or female CD-1 (Crl.) mice; from tissue
T1 sequence (P23979 24-489): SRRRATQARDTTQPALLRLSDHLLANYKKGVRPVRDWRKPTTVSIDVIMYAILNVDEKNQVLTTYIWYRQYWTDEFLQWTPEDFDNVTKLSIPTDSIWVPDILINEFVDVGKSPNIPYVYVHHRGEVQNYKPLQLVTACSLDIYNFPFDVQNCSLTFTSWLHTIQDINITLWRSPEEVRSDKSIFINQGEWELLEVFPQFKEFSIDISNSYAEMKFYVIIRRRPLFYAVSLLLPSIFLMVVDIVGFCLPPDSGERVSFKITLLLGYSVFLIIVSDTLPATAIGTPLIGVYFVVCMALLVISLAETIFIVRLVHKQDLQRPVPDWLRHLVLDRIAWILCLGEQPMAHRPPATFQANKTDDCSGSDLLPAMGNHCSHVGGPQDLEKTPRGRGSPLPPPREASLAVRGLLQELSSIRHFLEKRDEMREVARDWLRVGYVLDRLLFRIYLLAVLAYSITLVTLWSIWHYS
Experiment: Bezold-Jarisch assay in vivo (inhibition of serotonin induced bradycardia)
Details: 30 mg/kg orally, CD-1 mice; 5-HT (0.5 mg/kg IV)-induced bradycardia recorded sixty minutes later, pentobarbital-anesthetized
Description: Bezold-Jarisch Assay in vivo. […] Arch. Int. Pharmacodyn. 277: 235-252, 1985]. Test substances and vehicle [2% Tween 80] were each administered orally (30 mg/kg) to a group of 5 male or female CD-1 (Crl.) mice each weighing 24±2 g. A dosing volume of 10 mL/kg was used. Sixty minutes later, 5-HT (0.5 mg/kg IV)-induced bradycardia was recorded in pentobarbital (80 mg/kg IP, given 10 minutes before 5-HT)-anesthetized animals.

Compound	% Inhibition in vivo [%]
CN1C2CCCC1CC(NC(=O)c1cc(Cl)cc3oc(-c4ccccc4)nc13)C2 (stereo not shown)	40
COc1ccccc1-c1nc2c(C(=O)NC3CN4CCC3CC4)cccc2o1 (stereo not shown)	88
O=C(NC1CN2CCC1CC2)c1cccc2oc(-c3ccsc3)nc12 (stereo not shown)	62

Test system: not given
Experiment: not given
Details: not given

Compound	melting point [°C]
Cc1nccn1CCCNC(=O)c1cccc2oc(-c3ccccc3)nc12	145 to 148
CN1CCC(NC(=O)c2cc(Cl)cc3oc(-c4ccccc4)nc23)CC1	170 to 172
O=C(NC1CCNCC1)c1cc(Cl)cc2oc(-c3ccccc3)nc12	169 to 171
O=C(NC1CN2CCC1CC2)c1cc(Cl)cc2oc(-c3ccccc3)nc12 (stereo not shown)	180 to 183
O=C(NC1CN2CCC1CC2)c1cccc2oc(-c3ccc(Cl)cc3)nc12 (stereo not shown)	194 to 196
COc1ccc(-c2nc3c(C(=O)NC4CN5CCC4CC5)cccc3o2)cc1 (stereo not shown)	108 to 109
O=C(NC1CN2CCC1CC2)c1cccc2oc(-c3ccc(F)cc3)nc12 (stereo not shown)	208 to 209
Cc1nccn1CCNC(=O)c1cccc2oc(-c3ccccc3)nc12	125 to 127
CN1CCC(NC(=O)c2cccc3nc(-c4ccccc4)oc23)CC1	209 to 210
O=C(NC1CCNCC1)c1cccc2nc(-c3ccccc3)oc12	191 to 193
O=C(NC1CN2CCC1CC2)c1cccc2nc(-c3ccccc3)oc12 (stereo not shown)	179 to 180
O=C(NC1CN2CCC1CC2)c1cc(Cl)cc2nc(-c3ccccc3)oc12 (stereo not shown)	283 to 285
O=C(NC1CN2CCC1CC2)c1cccc2nc(-c3ccc(F)cc3)oc12 (stereo not shown)	185 to 187
COc1ccc(-c2nc3cccc(C(=O)NC4CN5CCC4CC5)c3o2)cc1 (stereo not shown)	166 to 167
CN1CCC(NC(=O)c2cccc3oc(-c4ccccc4)nc23)CC1	126 to 128
O=C(NC1CCNCC1)c1cccc2oc(-c3ccccc3)nc12	99 to 102
O=C(NC1CN2CCC1CC2)c1cccc2oc(-c3ccccc3)nc12 (stereo not shown)	77 to 80

Continued, values first:

melting point [°C]	Compound
185 to 187	CN1C2CCCC1CC(NC(=O)c1cccc3oc(-c4ccc(Cl)cc4)nc13)C2 (stereo not shown)
103 to 105	COc1ccc(-c2nc3c(C(=O)NC4CC5CCCC(C4)N5C)cccc3o2)cc1 (stereo not shown)
197 to 199	CN1C2CCCC1CC(NC(=O)c1cccc3oc(-c4ccc(F)cc4)nc13)C2 (stereo not shown)
164 to 166	CN1C2CCC1CC(NC(=O)c1cccc3nc(-c4ccccc4)oc13)C2 (stereo not shown)
199 to 201	CN1C2CCCC1CC(NC(=O)c1cc(Cl)cc3nc(-c4ccccc4)oc13)C2 (stereo not shown)
229 to 231	CN1C2CCCC1CC(NC(=O)c1cccc3nc(-c4ccc(F)cc4)oc13)C2 (stereo not shown)
160 to 162	COc1ccc(-c2nc3cccc(C(=O)NC4CC5CCCC(C4)N5C)c3o2)cc1 (stereo not shown)
181 to 183	O=C(NC1CN2CCC1CC2)c1cccc2nc(-c3ccc(Cl)cc3)oc12 (stereo not shown)
193 to 196	CN1C2CCCC1CC(NC(=O)c1cccc3nc(-c4ccc(Cl)cc4)oc13)C2 (stereo not shown)
182 to 185	CN1C2CCCC1CC(NC(=O)c1cccc3oc(-c4ccccc4)nc13)C2 (stereo not shown)
149 to 151	CN1C2CCC1CC(NC(=O)c1cccc3oc(-c4ccccc4)nc13)C2 (stereo not shown)
